These results are taken from US20050038098A1, “Substituted dihydronaphthalene and isochroman compounds for the treatment of metabolic disorders, cancer and other diseases” (priority 2003, published 2005).

Structures are written as SMILES.

The subject of assay [1] is carcinogen induced mammary tumors. In words: Carcinogen induced mammary tumors in Sprague Dawley rats. Type of assay: in vivo, rat. Conditions: combination treatment with tamoxifen (800 μg/kg) compared to tamoxifen alone. The procedure: Procedure: Five week-old female Sprague Dawley rats (Harlan) were housed in a fixed 12-12-hr artificial light-dark cycle, and maintained on a standard rodent diet provided ad libitum. Animals were allowed two days to acclimate in this experimental environment prior to the initiation of the study.
To induce mammary tumors, the female […] were injected intraperitoneally with the carcinogen n-nitroso-n-methylurea, in a single dose of 50 mg/kg in acidified normal saline (pH4 w/acetic acid) at a final volume of 10 mg/ml (5 ml/kg). After eight weeks, mammary tumors are detected, and the tumor bearing females are sorted into treatment groups. Once sorted, the animals were housed four per cage and provided rodent diet ad libitum. All animals are treated with test compound or a vehicle for four weeks, during which time, changes in tumor size are monitored. Tumors were classified as regressing, static or progressing.
Treatment groups (n=8/group): • 1) Control (sesame oil) • 2) Tamoxifen (800 μg/kg) • 3) Compound 1 (10 mg/kg) • 4) Compound 1 (20 mg/kg) • 5) Compound 1 (50 mg/kg) • 6) Compound 1 (100 mg/kg) • 7) Compound 1 (20 mg/kg)+Tamox. (800 μg/kg) • 8) Compound 9 (75 mg/kg) • 9) Compound 11 (20 mg/kg) • 10) Compound 11 (20 mg/kg)+Tamox. (800 μg/kg) • 11) Compound 11 (50 mg/kg) […]

Assay [2] deals with THP-1 cells differentiated into macrophages (macrophage foam cells). The assay is described as follows: Cholesterol efflux assay from macrophage foam cells. The assay is classed as cell-based. The settings on record: 1 μM final concentration, 10 μg/ml ApoA-I, 24 hr, vs non treated cells. The procedure: Cholesterol efflux from macrophage foam cells was assayed as described by Sparrow. et al, J. Biol. Chem., 2002, 277, 10021-10027, which is incorporated herein in its entirety by this reference. THP-1 cells obtained from ATCC (Manassas, VI), were cultured in RPMI medium (Sigma, St-Louis, Mo.), containing 10% fetal calf serum (Sigma, St-Louis, Mo.), […] 2-mercaptoethanol, 1 mM sodium pyruvate, 2 mM L-glutamine, 100 units/ml penicillin, […] streptomycin and 0.25 μg/ml amphotericin B obtained from Sigma (St-Louis, Mo.). The THP-1 cells were differentiated into macrophages in 24 well tissue culture dishes at a density of 0.5 million cells/well by incubation in the same medium plus 100 nM tetradecanoyl phorbol acetate (Sigma, St-Louis, Mo.), for 3 days.
After differentiation into macrophages, the cells were tested for cholesterol efflux as induced by Compound 11 of the invention. Cells were labeled by incubation for 24 hr in fresh growth medium containing [3H]-cholesterol (10 μCi/ml) (PerkinElmer, Boston, Mass.), and 50 μg/ml acetylated-LDL (Frederick, Md.) and 1% Fetal bovine serum (Sigma, St-Louis, Mo.). […] Media were briefly centrifuged to remove non-adherent cells, and then aliquots of both the supernatant and the dissolved cells were counted by liquid scintillation spectrometry to determine radioactivity.

The subject of assay [3] is 3T3-L1 pre-adipocytes. Conditions: comparative compound, stated as already shown; cited from earlier work.

As to `Cc1cc2c(cc1-c1cc(/C=C3\SC(=O)NC3=O)ccc1OC(F)(F)F)C(C(C)C)=CCC2(C)C` [Compound 1, 5[3-(8-Isopropyl-3,5,5-trimethyl-5,6-dihydro-naphthalen-2-yl)-4-trifluoromethoxy-benzylidene]-thiazolidine-2,4-dione], the “effect on mammary tumors in combination with tamoxifen” value in assay [1] is listed as “unexpectedly improved and/or synergistic effects”.
For the compound `COc1c(F)cc(/C=C2\SC(=O)NC2=O)c(F)c1-c1cc2c(cc1C)C(C)(C)OCC2(C)C` [Compound 11, 5-[2,5-Difluoro-4-methoxy-3-(1,1,4,4,7-pentamethyl-isochroman-6-yl)-benzylidene]-thiazolidine-2,4-dione], the cholesterol efflux result in assay [2] is “effective for inducing cholesterol efflux”; in assay [2] (listed as compound 11) it was “increases cholesterol efflux”.
With `Cc1cc2c(cc1-c1cc(/C=C3\SC(=O)NC3=O)ccc1OC(F)(F)F)C(C)(C)CCC2(C)C` [Compound 41, 5-[3-(3,5,5,8,8-Pentamethyl-5,6,7,8-tetrahydro-naphthalen-2-yl)-4-trifluoromethoxy-benzylidene]-thiazolidine-2,4-dione], in assay [3], the “inducer of adipocyte differentiation” value is given as “potent inducer of adipocyte differentiation”.
